Test results from ChEMBL document CHEMBL5291721, “A preclinical secondary pharmacology resource illuminates target-adverse drug reaction associations of marketed drugs” (Nat Commun, 2023).

How the values were obtained:
[1] = target: 5-hydroxytryptamine receptor 2B (Homo sapiens, UniProt P41595); format: functional, cell-based
Melanocortin receptor 3 = Melanocortin receptor 3 (Homo sapiens, UniProt P41968)
[2] = target: 3',5'-cyclic-AMP phosphodiesterase 4D (Homo sapiens, UniProt Q08499); format: functional
[3] = target: T1, Gamma-aminobutyric acid receptor subunit alpha-1 (Rattus norvegicus, UniProt P62813)
[4] = target: cGMP-inhibited 3',5'-cyclic phosphodiesterase 3A (Homo sapiens, UniProt Q14432); format: functional
[5] = target: T2, Prostaglandin G/H synthase 1 (Rattus norvegicus, UniProt Q63921); format: functional
T2 sequence (Q63921 whole entry): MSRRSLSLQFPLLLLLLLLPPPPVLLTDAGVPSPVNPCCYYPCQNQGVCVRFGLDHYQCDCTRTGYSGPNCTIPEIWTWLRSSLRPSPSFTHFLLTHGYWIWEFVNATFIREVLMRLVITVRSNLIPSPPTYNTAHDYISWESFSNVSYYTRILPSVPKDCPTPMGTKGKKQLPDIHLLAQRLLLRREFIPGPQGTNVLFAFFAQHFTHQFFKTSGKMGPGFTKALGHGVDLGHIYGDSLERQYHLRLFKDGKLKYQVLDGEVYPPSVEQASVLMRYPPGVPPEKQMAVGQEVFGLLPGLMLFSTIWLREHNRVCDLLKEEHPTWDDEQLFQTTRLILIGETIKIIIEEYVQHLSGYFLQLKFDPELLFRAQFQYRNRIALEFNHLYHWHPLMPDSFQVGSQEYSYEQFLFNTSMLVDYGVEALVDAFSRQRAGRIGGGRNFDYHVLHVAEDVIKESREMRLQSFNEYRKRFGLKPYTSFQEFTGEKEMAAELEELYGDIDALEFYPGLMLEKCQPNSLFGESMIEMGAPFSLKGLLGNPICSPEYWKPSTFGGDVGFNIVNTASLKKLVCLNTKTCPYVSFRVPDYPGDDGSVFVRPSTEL

[6] = target: T3, Alpha-2A adrenergic receptor (Homo sapiens, UniProt P08913); format: functional, cell-based
T3 sequence (P08913 whole entry): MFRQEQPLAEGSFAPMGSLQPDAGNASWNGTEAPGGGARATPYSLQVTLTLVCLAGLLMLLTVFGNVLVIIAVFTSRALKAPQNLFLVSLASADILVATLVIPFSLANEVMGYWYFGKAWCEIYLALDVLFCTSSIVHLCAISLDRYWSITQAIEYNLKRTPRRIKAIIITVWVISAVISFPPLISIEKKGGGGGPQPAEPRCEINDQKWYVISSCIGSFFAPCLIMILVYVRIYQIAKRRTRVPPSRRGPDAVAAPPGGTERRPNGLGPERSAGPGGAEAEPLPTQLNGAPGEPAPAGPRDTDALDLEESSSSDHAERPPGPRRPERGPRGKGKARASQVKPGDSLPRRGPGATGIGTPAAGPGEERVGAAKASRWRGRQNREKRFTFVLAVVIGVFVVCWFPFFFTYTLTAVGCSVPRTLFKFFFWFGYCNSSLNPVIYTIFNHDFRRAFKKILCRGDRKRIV

Glucocorticoid receptor = target: T4, Glucocorticoid receptor (Homo sapiens, UniProt P04150)
T4 sequence (P04150 whole entry): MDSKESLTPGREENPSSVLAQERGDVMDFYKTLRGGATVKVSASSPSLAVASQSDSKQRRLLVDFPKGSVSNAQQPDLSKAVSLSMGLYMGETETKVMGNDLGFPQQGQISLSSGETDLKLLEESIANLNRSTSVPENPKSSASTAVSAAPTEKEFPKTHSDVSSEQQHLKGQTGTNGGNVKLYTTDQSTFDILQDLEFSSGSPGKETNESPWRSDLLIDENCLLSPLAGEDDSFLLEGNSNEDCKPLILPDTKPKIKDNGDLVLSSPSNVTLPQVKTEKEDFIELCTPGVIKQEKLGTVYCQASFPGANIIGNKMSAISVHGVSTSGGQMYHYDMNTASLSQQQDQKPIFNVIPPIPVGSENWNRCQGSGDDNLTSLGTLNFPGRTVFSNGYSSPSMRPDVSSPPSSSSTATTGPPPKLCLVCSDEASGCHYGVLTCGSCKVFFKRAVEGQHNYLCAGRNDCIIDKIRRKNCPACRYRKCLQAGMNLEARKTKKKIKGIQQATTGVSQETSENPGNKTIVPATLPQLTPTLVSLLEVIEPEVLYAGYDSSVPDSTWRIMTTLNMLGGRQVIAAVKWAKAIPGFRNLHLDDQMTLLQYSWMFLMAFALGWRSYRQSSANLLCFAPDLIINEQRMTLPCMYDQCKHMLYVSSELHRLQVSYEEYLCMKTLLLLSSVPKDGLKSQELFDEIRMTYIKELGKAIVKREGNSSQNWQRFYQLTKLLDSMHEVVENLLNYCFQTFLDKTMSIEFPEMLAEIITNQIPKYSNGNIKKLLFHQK

[7] = target: T1, Gamma-aminobutyric acid receptor subunit alpha-1; format: functional
Note: assay procedure not described here.

Sequence of 5-hydroxytryptamine receptor 2B (P41595 whole entry): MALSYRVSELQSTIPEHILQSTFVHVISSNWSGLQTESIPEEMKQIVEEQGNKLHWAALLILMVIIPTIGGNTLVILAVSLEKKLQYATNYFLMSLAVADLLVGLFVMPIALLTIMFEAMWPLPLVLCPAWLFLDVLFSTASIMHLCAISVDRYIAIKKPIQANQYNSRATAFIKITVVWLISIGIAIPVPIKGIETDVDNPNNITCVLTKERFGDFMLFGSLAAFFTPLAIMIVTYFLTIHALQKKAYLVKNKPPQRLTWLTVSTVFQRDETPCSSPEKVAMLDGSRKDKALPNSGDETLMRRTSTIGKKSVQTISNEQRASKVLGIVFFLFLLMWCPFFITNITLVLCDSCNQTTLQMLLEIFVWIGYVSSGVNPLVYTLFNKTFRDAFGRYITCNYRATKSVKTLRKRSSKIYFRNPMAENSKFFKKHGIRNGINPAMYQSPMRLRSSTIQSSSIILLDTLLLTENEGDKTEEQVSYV
Sequence of 3',5'-cyclic-AMP phosphodiesterase 4D (Q08499 whole entry): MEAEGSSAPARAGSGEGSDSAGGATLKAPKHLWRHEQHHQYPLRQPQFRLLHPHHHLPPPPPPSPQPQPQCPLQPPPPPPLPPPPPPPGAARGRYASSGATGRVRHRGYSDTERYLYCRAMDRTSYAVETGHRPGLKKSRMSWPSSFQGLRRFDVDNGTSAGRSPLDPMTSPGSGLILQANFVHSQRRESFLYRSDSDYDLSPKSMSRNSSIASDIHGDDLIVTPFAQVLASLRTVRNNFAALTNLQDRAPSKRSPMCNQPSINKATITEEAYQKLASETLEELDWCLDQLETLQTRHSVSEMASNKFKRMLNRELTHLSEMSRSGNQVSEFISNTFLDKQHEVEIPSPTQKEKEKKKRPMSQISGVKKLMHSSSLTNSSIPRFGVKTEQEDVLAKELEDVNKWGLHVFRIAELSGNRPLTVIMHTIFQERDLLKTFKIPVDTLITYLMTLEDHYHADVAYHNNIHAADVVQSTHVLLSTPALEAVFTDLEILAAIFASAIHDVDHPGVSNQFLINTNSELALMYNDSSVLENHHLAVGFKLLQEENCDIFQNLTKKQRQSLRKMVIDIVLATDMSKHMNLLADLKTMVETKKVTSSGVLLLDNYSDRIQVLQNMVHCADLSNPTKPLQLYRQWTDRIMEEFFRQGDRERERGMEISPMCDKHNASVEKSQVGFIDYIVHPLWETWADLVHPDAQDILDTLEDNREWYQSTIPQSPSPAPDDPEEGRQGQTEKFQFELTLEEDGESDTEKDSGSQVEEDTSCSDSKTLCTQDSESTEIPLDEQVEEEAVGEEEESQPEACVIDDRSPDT
Sequence of cGMP-inhibited 3',5'-cyclic phosphodiesterase 3A (Q14432 whole entry): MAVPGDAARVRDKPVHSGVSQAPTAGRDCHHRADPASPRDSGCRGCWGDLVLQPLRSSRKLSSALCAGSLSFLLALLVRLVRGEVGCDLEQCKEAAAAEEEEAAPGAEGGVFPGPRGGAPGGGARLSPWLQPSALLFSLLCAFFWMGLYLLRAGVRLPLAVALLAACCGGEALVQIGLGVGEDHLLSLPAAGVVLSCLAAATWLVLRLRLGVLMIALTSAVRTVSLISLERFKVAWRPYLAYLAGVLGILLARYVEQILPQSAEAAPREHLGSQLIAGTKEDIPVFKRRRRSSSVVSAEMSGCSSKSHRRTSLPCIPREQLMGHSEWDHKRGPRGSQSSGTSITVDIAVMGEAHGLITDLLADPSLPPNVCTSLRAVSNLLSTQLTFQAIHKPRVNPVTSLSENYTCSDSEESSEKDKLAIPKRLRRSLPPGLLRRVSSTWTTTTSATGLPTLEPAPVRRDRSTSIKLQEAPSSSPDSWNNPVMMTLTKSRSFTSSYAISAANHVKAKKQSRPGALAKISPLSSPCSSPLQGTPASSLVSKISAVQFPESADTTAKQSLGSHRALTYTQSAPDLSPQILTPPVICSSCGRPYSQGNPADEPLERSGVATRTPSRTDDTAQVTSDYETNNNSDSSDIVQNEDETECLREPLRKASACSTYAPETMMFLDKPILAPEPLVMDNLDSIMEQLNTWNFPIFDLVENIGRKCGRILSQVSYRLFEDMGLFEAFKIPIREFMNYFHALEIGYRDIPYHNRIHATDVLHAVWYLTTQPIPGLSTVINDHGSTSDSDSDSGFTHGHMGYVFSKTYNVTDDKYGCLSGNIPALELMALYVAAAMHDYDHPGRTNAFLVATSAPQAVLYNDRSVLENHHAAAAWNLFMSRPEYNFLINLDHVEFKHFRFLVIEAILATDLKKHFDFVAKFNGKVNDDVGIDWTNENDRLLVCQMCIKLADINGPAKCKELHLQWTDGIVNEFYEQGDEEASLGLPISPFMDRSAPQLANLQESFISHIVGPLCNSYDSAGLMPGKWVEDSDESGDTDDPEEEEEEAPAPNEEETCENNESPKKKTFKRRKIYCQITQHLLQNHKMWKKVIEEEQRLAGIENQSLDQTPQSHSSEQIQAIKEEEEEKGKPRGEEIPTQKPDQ
T1 sequence (P62813 whole entry): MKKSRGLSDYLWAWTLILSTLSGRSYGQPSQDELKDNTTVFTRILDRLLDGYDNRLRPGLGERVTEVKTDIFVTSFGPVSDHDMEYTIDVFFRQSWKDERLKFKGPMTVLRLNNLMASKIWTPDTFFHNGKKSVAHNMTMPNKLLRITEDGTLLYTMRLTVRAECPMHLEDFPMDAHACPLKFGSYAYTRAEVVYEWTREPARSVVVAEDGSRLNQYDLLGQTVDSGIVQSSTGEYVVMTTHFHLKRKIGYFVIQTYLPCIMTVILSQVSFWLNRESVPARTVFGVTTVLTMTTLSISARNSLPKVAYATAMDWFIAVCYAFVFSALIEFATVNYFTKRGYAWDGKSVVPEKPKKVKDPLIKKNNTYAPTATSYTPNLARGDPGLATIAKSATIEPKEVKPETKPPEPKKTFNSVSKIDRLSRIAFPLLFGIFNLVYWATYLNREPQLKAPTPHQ
Sequence of Melanocortin receptor 3 (P41968 whole entry): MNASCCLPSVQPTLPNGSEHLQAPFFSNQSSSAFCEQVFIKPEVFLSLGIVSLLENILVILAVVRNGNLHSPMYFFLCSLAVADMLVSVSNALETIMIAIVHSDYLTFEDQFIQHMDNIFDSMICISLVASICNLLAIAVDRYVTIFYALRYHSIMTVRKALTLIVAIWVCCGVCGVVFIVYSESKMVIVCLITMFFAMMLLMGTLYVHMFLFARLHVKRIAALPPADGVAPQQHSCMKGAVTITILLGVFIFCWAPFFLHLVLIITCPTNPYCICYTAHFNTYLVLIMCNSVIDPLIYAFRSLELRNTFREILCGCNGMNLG

Structure (SMILES) | AC50 [1] | AC50 (Melanocortin receptor 3) | AC50 [2] | AC50 [3] | AC50 [4] | AC50 [5] | AC50 [6] | AC50 (Glucocorticoid receptor) | AC50 [7]
CC1=C(C(=O)OC(C)C)C(c2cccc([N+](=O)[O-])c2)C(C(=O)OC2CN(C(c3ccccc3)c3ccccc3)C2)=C(N)N1 (centres undefined) [AZELNIDIPINE] | > 30 µM | > 30 µM | 6.6 µM | > 30 µM | > 30 µM | 16 µM | > 30 µM | > 30 µM | > 30 µM
CCOC(=O)c1ccc(N)cc1 [BENZOCAINE] | > 10 µM | > 10 µM | > 30 µM | > 10 µM | > 30 µM | > 10 µM | > 10 µM | > 10 µM | > 10 µM
CC(C)(Oc1ccc(CCNC(=O)c2ccc(Cl)cc2)cc1)C(=O)O [BEZAFIBRATE] | > 10 µM | > 10 µM | > 30 µM | > 10 µM | > 30 µM | > 10 µM | > 10 µM | > 10 µM | > 10 µM
C/C=C(/C(=C/C)c1ccc(O)cc1)c1ccc(O)cc1 [DIENESTROL] | > 10 µM | > 10 µM | > 30 µM | > 10 µM | > 30 µM | > 30 µM | > 10 µM | 0.736 µM | > 10 µM
CN[C@]1(c2ccccc2Cl)CCCCC1=O [ESKETAMINE] | > 30 µM | > 30 µM | > 30 µM | > 30 µM | > 30 µM | > 30 µM | > 30 µM | > 30 µM | > 30 µM
COc1ccc([C@@H]2CC(=O)c3c(O)cc(O)cc3O2)cc1O [HESPERETIN] | > 10 µM | > 10 µM | 30 µM | > 10 µM | 21 µM | 30.7 µM | > 10 µM | > 10 µM | > 10 µM
CN(C)CCCN1c2ccccc2CCc2ccccc21 [IMIPRAMINE] | > 10 µM | 18.8 µM | > 10 µM | > 10 µM | > 10 µM | > 30 µM | > 10 µM | > 30 µM | > 10 µM
CCOC(=O)C1=C(C)NC(C)=C(C(=O)OCC)C1c1ccccc1/C=C/C(=O)OC(C)(C)C [LACIDIPINE] | > 30 µM | > 30 µM | 12 µM | > 30 µM | > 30 µM | > 30 µM | > 30 µM | > 30 µM | > 30 µM
CCC[C@@H]1C[C@@H](C(=O)N[C@@H]([C@H]2O[C@H](SC)[C@H](O)[C@@H](O)[C@H]2O)[C@@H](C)O)N(C)C1 [LINCOMYCIN] | > 30 µM | > 10 µM | > 30 µM | > 10 µM | > 30 µM | > 10 µM | > 30 µM | > 10 µM | > 10 µM
COC(=O)C1=C(C)NC(C)=C(C(=O)OCCN2CCN(C(c3ccccc3)c3ccccc3)CC2)C1c1cccc([N+](=O)[O-])c1 (centres undefined) [MANIDIPINE 6300] | > 30 µM | > 30 µM | > 30 µM | > 30 µM | > 30 µM | 7.4 µM | > 30 µM | > 30 µM | > 30 µM
C=C1c2cccc(O)c2C(=O)C2=C(O)[C@]3(O)C(=O)C(C(N)=O)=C(O)[C@@H](N(C)C)[C@@H]3[C@@H](O)[C@H]12 [METHACYCLINE] | > 10 µM | > 30 µM | > 30 µM | > 10 µM | > 30 µM | > 30 µM | > 10 µM | > 30 µM | > 10 µM
Cc1ccccc1N1C(=O)c2cc(S(N)(=O)=O)c(Cl)cc2NC1C (centres undefined) [METOLAZONE] | > 10 µM | > 10 µM | > 30 µM | > 10 µM | > 30 µM | > 10 µM | > 10 µM | > 10 µM | > 10 µM
O=C(O)c1cccnc1Nc1cccc(C(F)(F)F)c1 [NIFLUMIC ACID] | > 10 µM | > 10 µM | > 30 µM | > 10 µM | > 30 µM | 30 µM | > 10 µM | > 10 µM | > 10 µM
O=C1c2cccc3c2[C@H](CCC3)CN1[C@@H]1CN2CCC1CC2 [PALONOSETRON] | > 30 µM | > 30 µM | > 30 µM | > 30 µM | > 30 µM | > 30 µM | 25 µM | > 30 µM | > 30 µM
OC[C@H]1O[C@@H](n2cnc3c2NC=NC[C@H]3O)C[C@@H]1O [PENTOSTATIN] | > 30 µM | > 30 µM | > 30 µM | > 30 µM | > 30 µM | 6.6 µM | > 30 µM | > 30 µM | > 30 µM
O=C1c2ccccc2C(=O)C1c1ccccc1 [PHENINDIONE] | > 10 µM | > 10 µM | > 30 µM | > 10 µM | > 30 µM | > 10 µM | > 10 µM | > 10 µM | > 10 µM
Cc1cccc(C)c1NC(=O)CC12CCCN1CCC2 [PILSICAINIDE] | > 30 µM | > 30 µM | > 30 µM | > 30 µM | > 30 µM | > 30 µM | > 30 µM | > 30 µM | > 30 µM
CN[C@@H](C)[C@@H](O)c1ccccc1 [PSEUDOEPHEDRINE] | > 10 µM | > 30 µM | > 30 µM | > 10 µM | > 30 µM | > 30 µM | > 10 µM | > 30 µM | > 10 µM
CCCN1CC(NS(=O)(=O)N(CC)CC)CC2Cc3c(O)cccc3CC21 (centres undefined) [QUINAGOLIDE] | 3.67 µM | > 30 µM | > 30 µM | > 30 µM | > 30 µM | > 30 µM | > 30 µM | > 30 µM | > 30 µM
O=S1(=O)CCN(CN2CCS(=O)(=O)NC2)CN1 [TAUROLIDINE] | > 30 µM | > 30 µM | > 30 µM | > 30 µM | > 30 µM | > 30 µM | > 30 µM | > 10 µM | > 10 µM
CCOC(=O)c1c(CSc2ccccc2)n(C)c2cc(Br)c(O)c(CN(C)C)c12 [UMIFENOVIR] | > 30 µM | > 30 µM | 5.6 µM | > 30 µM | > 30 µM | 19 µM | > 30 µM | > 30 µM | > 30 µM
